Assay results taken from paper PMC8962522, “Direct interaction of TrkA/CD44v3 is essential for NGF-promoted aggressiveness of breast cancer cells” (Journal of Experimental & Clinical Cancer Research : CR, 2022).

Legend:
[1] = test system: TrkA-His tagged extracellular domain protein (Ala 34-Gly423); assay: MST binding of CD44v3 mimetic peptides to TrkA; conditions: TrkA-His 200 nM labelled with RED-Tris-NTA, PBS-T
Procedure: (§1) MST was conducted using an NT.115 A Pico MST instrument (Nano Temper Technologies GmbH) equipped with red and blue filter sets. The TrkA-His tagged extracellular domain protein (Ala 34-Gly423) (9966-TK-050; R&D Systems, United Kingdom), diluted to 200 nM in PBS-T buffer (supplied by the vendor), was labeled using a Monolith His-Tag Labeling Kit with RED-Tris-NTA (Nano Temper). The RED-Tris-NTA dye was diluted in PBS-T to 100 nM. The mix was incubated at RT in the dark for 30 min. Next, an extract expressing CD44v3-labeled protein (CD44v3-His) and ligand and/or TrkA was mixed at a 1:1 ratio and incubated at RT in the dark for 15 min. For the binding check, peptides and TrkA-His were used. Capillaries were filled individually and loaded into the instrument. The data were acquired using high MST power and 100% LED. The data were analyzed using MO Control Software (Nano Temper).
Fig. 2 The C-terminal region of CD44v3 and the His112 residue of TrkA are involved in the CD44v3/TrkA interaction. TrkA/CD44v3 complex association was detected by the proximity ligation assay (PLA) in wild-type TrkA- or TrkA_H112A- and CD44v3-expressing COS-7 cells. Proximity ligation assays were performed after 0, 5 and 30 min of NGF treatment (100 ng/ml). Representative images of signals detected by PLA (A) and their quantification (B). Sequence of CD44 exon variant 3 and deletion mutant Δ3 or Δ4 (C). TrkA/CD44v3 complex association was detected by PLA in wild-type TrkA and CD44v3 wild type or CD44v3 deleted mutant Δ3 or Δ4 expressing COS-7 (D, E). Sequence of CD44v3 mimetic peptides (F) and structure (G). TrkA binding to CD44v3 mimetic peptides by microscale thermophoresis (H) and effects of CD44v3 mimetic peptides 3 (RDRHLSFSGSG) and 4 ([…]) on TrkA/CD44v3 complex formation (I, J). Quantification of PLA was performed using ImageJ software (30 fields per condition of three different experiments). Statistical analyses were performed using one-way ANOVA followed by Bonferroni’s posttest.
To block the TrkA-CD44v3 association, 4 mimetic peptides of CD44v3 were designed corresponding to zone 1 [(K) STSSNTISAG], zone 2 (WEPNEENEDE), zone 3 (RDRHLSFSGSG) and zone 4 (IDDDEDFISST) (Fig. 2F & G). The binding capacities of the CD44v3 mimetic peptides to TrkA were then measured by MST (Fig. 2H). […] To confirm mimetic peptide 4 binding, we assessed its ability to bind TrkA using nanoscale differential scanning fluorimetry (nanoDSF; Supplementary Fig. 6A & B).

[2] = test system: CD44v3 (CD44v3-His, whole cell extracts of COS-7 cells expressing CD44v3); assay: MST binding of NGF, TrkA or FGF to CD44v3; conditions: whole cell extracts of COS-7 expressing CD44v3, NGF alone, TrkA alone or FGF control
Procedure: as §1
(§2) Fig. 1 The C-terminal region of CD44 variant 3 binds to TrkA. A Schematic representation of the CD44 gene and protein structure. Alternative splicing leads to the expression of CD44 variants, thus the insertion of exon 8 leads to the expression of a CD44 protein containing variant 3 (CD44v3) and the insertion of exon 11 leads to the expression of a CD44 containing variant 6 (CD44v6) (B) TrkA/CD44v3 complex formation in COS-7 cells expressing TrkA and CD44v3 was detected by the proximity ligation assay (PLA), which was performed 0, 5 and 30 min after the initiation of NGF (100 ng/ml) treatment. The images represent signals detected by PLA. Quantification of the red spots was performed by ImageJ software (30 randomly chosen fields per condition of three different experiments). Statistical analyses were performed using one-way ANOVA followed by Bonferroni’s posttest. Error bars represent the standard error of the mean (S.E.M.); *** p < 0.001. ns, nonsignificant. C NGF and/or TrkA binding to CD44v3 was measured by microscale thermophoresis (MST). MST experiments were performed on whole cell extracts of COS-7 cells expressing CD44v3. […]

[3] = test system: TrkA/CD44v3 complex in COS-7 cells expressing TrkA and CD44v3; assay: PLA TrkA/CD44v3 complex formation in COS-7 cells; type: cell-based, African green monkey (COS-7 cells); conditions: COS-7 expressing TrkA and CD44v3, NGF 100 ng/ml, 0, 5 and 30 min, 30 fields per condition, three experiments
Procedure: (§3) Cells (10,000 cells per well) were grown on acid-washed eight-well glass slides (Thermo Scientific) in the appropriate medium supplemented with 10% FBS for 24 h. After NGF treatment, paraformaldehyde (PAF)-fixed cells were incubated with 4% bovine serum albumin (BSA) or 5% FBS (for 1 h at 20 °C), followed by overnight incubation with primary antibodies (rabbit anti-TrkA or rabbit anti-IgG + mouse anti-pan-CD44; mouse anti-CD44v3; mouse anti-CD44v6; mouse anti-IgG2a; mouse anti-IgG2b; or mouse anti-IgG1). PLA was performed following the manufacturer’s instructions in the assay kit (Duolink PLA; Sigma–Aldrich). To obtain the correct representation of the PLA signal for each condition, 30 fields per condition were observed using a fluorescence microscope (Eclipse TiU; Nikon, Japan). The PLA signals (red dots) were automatically quantified using ImageJ software (with an in-house-developed plug-in). After PLA, statistical analyses were performed using GraphPad Prism software to determine the mean dot intensity in the cells.
as §2
Fig. 2 The C-terminal region of CD44v3 and the His112 residue of TrkA are involved in the CD44v3/TrkA interaction. TrkA/CD44v3 complex association was detected by the proximity ligation assay (PLA) in wild-type TrkA- or TrkA_H112A- and CD44v3-expressing COS-7 cells. […] Representative images of signals detected by PLA (A) and their quantification (B). […] TrkA/CD44v3 complex association was detected by PLA in wild-type TrkA and CD44v3 wild type or CD44v3 deleted mutant Δ3 or Δ4 expressing COS-7 (D, E). […] Quantification of PLA was performed using ImageJ software (30 fields per condition of three different experiments). […]

[4] = test system: TrkA/CD44v3 complex in MDA-MB-231 cells; assay: PLA TrkA/CD44v3 complex formation in MDA-MB-231 cells; type: cell-based; conditions: NGF 100 ng/ml; 30 fields per condition, three experiments
Procedure: as §3
Fig. 3 CD44v3 mimetic peptide 4 blocks the TrkA-CD44 association in MDA-MB-231 breast cancer cells. TrkA/CD44v3 (A) and TrkA/CD44v6 (B) complex associations were detected by the proximity ligation assay (PLA) in MDA-MB-231 breast cancer cells. Effects of a scramble peptide (SP) (C), CD44v3 mimetic peptide 3 (P3) and 4 (P4) (D) on TrkA/CD44v3 complex formation induced by NGF. Quantification of the PLA results was performed by ImageJ software (30 randomly chosen fields per condition of three different experiments). Statistical analyses were performed using one-way ANOVA followed by Bonferroni’s posttest. The error bars represent the standard error of the mean (S.E.M.); * p < 0.05, ** p < 0.01, *** p < 0.001; ns, not significant

Row | Substance | binding to TrkA by MST (in words) [1] | binding to CD44v3 (in words) [2] | further results
1 | WEPNEENEDE [Peptide 2, CD44v3 mimetic peptide corresponding to zone 2 (…)] | neither peptide 1 (KSTSSNTISAG) nor peptide 2 (WEPNEENEDE) could bind TrkA | – | –
2 | FGF-1: fibroblast growth factor, positive control for CD44v3 binding | – | In contrast to FGF-1 (Supplementary Fig. 4), NGF did not bind to CD44v3 | –
3 | KSTSSNTISAG [Peptide 1, CD44v3 mimetic peptide corresponding to zone 1 [(K) […]]] | neither peptide 1 ([…]) nor peptide 2 ([…]) could bind TrkA | – | –
4 | FGF-2: FGF-2 (control), binding to CD44v3 | – | binding to CD44v3 but not to NGF was detected | –
5 | RDRHLSFSGSG [Peptide 3, CD44v3 mimetic peptide corresponding to zone 3 (…)] | – | – | effect on TrkA/CD44v3 complex formation (PLA) in COS-7 cells [3]: did not inhibit TrkA/CD44v3 complex formation; effect on TrkA/CD44v3 complex formation (PLA) in COS-7 cells ([3]; listed as P3): did not abolish complex formation; binding to TrkA by MST (in words) ([1]; listed as P3): also bound TrkA; effect on TrkA/CD44v3 complex formation (PLA) in MDA-MB-231 cells [4]: neither a scramble peptide (Fig. 3C) nor mimetic peptide P3 (Fig. 3D) inhibited TrkA/CD44v3 complex formation following NGF treatment
